Consider one cell line from the supplement of paper PMC10307832.

What all share (assay): relative viability (nuclei count vs DMSO), 5 days (fraction); higher = more cells survive
Compound in assay [1]: CCC1=CN=CN=C1N2CCN(CC2)CC3=NC4=C(N3)C=C(C=C4)C(F)(F)F + O=C(CCCCCCC(=O)Nc1ccccc1)NO [Vorinostat] (partner 1 µM)
The method, boiled down:
(§1)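 The day after seeding in 1536-well plates, lung cancer cell lines were treated by pin tool with a single drug, or with a fixed anchor-drug dose together with five library-drug doses (not always all listed) in √10 steps. After 5 days, a combined fix-and-stain solution (final 0.05% Triton X-100, 1% formaldehyde, 1 ug/ml Hoechst) was added. Nuclei counted on 4× images gave relative viability as treated counts over vehicle counts, reported as the median of duplicate plates.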

Compound in assay [2]: CCn1c(-c2nonc2N)nc2cnc(Oc3cccc(NC(=O)c4ccc(OCCN5CCOCC5)cc4)c3)cc21 + CC(C)C[C@H](NC(=O)[C@H](Cc1ccccc1)NC(=O)c1cnccn1)B(O)O [Bortezomib] (partner 0.002 µM)
The method, boiled down: as §1

Compound in assay [3]: N=C1NC(=O)/C(=C/c2ccc(O)cc2)S1 [Mirin] + CC(C)C[C@H](NC(=O)[C@H](Cc1ccccc1)NC(=O)c1cnccn1)B(O)O [Bortezomib] (partner 0.002 µM)
A digest of the protocol: as §1

Compound in assay [4]: N=C1NC(=O)/C(=C/c2ccc(O)cc2)S1 [Mirin] + COc1cccc2cc(-c3nc([C@H]4CC[C@H](C(=O)O)CC4)n4ncnc(N)c34)[nH]c12 [OSI-027] (partner 0.5 µM)
A digest of the protocol:
as §1

Consider UMC-11, for which the relative viability in assay [1] (first compound 0.04 µM) came to 0.357; in assay [1] (first compound 0.1265 µM), 0.359; in assay [1] (first compound 0.4 µM), 0.376; in assay [1] (first compound 1.265 µM) it was 0.304; in assay [1] (first compound 4 µM) it was 0.316; in assay [2] (first compound 0.04 µM) it was 0.999. Moreover, the relative viability in assay [2] (first compound 0.1265 µM) was found to be 0.439; in assay [2] (first compound 0.4 µM) it was 0.312; in assay [2] (first compound 1.265 µM), 0.161; in assay [2] (first compound 4 µM), 0.135; in assay [3] (first compound 0.25 µM), 0.876; in assay [3] (first compound 0.7906 µM), 0.457. The relative viability was 0.629 in assay [3] (first compound 2.5 µM); 0.636 in assay [3] (first compound 7.906 µM); 0.547 in assay [3] (first compound 25 µM); 0.477 in assay [4] (first compound 0.25 µM); 0.483 in assay [4] (first compound 0.7906 µM); 0.461 in assay [4] (first compound 2.5 µM). For the same cell line, the relative viability in assay [4] (first compound 7.906 µM) worked out at 0.396; in assay [4] (first compound 25 µM) it was 0.293.
